For twelve compounds, IC50 results are on record in US20220204539A1, “CD73 INHIBITORS” (BioArdis LLC, priority 2019, published 2022).

For orientation: IC50 means the concentration needed to halve the response being measured.

Assay [1] deals with T1, Recombinant Human 5′-Nucleotidase (CD73) (Homo sapiens, UniProt P21589).
T1 construct: CHO derived CD73 (Trp27-Lys547), with a C-terminal 6-His tag; 6-His (C); purchased R&D 5795-EN; host or cells: CHO
T1 sequence (P21589 27-547): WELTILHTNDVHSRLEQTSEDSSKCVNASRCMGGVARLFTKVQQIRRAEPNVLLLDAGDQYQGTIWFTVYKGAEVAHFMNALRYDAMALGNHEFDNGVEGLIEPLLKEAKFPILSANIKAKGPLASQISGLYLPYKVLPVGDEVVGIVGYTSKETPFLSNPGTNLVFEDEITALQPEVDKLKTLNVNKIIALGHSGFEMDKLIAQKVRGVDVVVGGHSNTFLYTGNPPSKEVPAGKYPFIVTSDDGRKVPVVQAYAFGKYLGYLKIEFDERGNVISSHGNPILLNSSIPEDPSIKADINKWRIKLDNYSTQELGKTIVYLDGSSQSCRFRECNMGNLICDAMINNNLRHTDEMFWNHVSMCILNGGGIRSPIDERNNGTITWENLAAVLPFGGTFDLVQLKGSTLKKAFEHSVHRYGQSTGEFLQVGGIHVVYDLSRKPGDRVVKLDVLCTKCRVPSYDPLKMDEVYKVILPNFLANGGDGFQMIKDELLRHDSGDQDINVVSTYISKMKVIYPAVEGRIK
Briefly: CD73 Enzyme Assay. The assay is classed as biochemical. The conditions noted are these: human CD73 0.5 nM, AMP 30 μM, PiColorLock phosphate detection; read-out: Potency (IC50, CD73 enzyme assay). In a few lines:
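Human CD73 (CHO-derived Trp27-Lys547, His-tagged; 0.5 nM final) was preincubated with compound for 15 min at 25° C. in Tris pH 7.5 buffer with MgCl2. It then reacted with 30 μM AMP for 20 min at 37° C., and released phosphate was read by malachite green absorbance at 635 nm. IC50 came from four-parameter fits against enzyme and no-enzyme controls.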

The target of assay [2] is T2, Cell surface CD73 of U87 MG human glioblastoma cells (Homo sapiens, UniProt P21589).
T2 construct: Cell surface CD73 catalyzes the conversion of adenosine monophosphate (AMP) to adenosine and inorganic phosphate; endogenous in cells; host or cells: U87 MG human glioblastoma cells
T2 sequence (P21589 27-549): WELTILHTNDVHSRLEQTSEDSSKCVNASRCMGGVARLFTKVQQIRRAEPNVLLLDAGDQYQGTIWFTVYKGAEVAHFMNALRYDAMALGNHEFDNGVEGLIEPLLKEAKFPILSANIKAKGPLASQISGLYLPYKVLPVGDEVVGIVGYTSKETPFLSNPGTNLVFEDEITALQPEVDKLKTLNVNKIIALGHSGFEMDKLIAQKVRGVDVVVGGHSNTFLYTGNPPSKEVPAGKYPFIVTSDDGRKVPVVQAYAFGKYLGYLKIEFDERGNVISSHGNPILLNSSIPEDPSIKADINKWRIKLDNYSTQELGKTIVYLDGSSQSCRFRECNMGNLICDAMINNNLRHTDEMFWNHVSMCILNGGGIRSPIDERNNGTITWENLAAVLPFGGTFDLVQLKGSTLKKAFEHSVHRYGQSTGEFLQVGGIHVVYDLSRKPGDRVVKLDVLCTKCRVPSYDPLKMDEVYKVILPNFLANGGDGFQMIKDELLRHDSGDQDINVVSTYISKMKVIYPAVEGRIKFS
In words: CD73 Cellular Assay. It counts as cell-based. The conditions noted are these: 5000 cells per well, 30 μM AMP substrate, read-out: Potency (IC50, CD73 cellular assay). As to the method: Cell surface CD73 catalyzes the conversion of adenosine monophosphate (AMP) to adenosine and inorganic phosphate. U87 MG human glioblastoma cells express high level of CD73. Cells are treated with compounds in a 96-well assay plate and supernatants are collected into a 384-well detection plate. The concentration of inorganic phosphate (Pi) in the supernatants is determined using the phosphate detection reagent, PiColorLock™ (Innova Bioscience, Cat #303-0125) following the manufacturer's instructions.
Briefly, on the day of the assay, U87 MG cells were harvested and resuspended in assay buffer which consisted of 20 mM HEPES, pH=7.4, 137 mM NaCl, 5.4 mM KCl, 1.3 mM CaCl2, 4.2 mM NaHCO3 and 0.1% glucose. To test the effect of compounds on cellular CD73 enzymatic activity, 500 nL/well of compounds dissolved in DMSO were added to a 96-well TC-treated microplate (Corning #3599). Next, 80 μL/well of U87 MG cells in assay buffer were added to assay plate. After 30 minutes of incubation in an atmosphere of 5% CO2 at 37° C., 20 μL/well of 150 μM AMP (Adenosine 5′-monophosphate monohydrate, Sigma, Cat #01930) in assay buffer was added to assay plate. Final assay conditions consisted of 5000 cells per well in 0.5% DMSO and 30 μM AMP substrate. After 50 minutes of incubation in an atmosphere of 5% CO2 at 37° C., 50 μL/well of supernatant was transferred to the 384-well detection plate (Corning® NBS™ 384 well plates, Cat #3640). Meanwhile “Gold mix” was prepared shortly before use by adding 1/100 volume of accelerator to the PiColorLock™ Gold reagent. 12 μL/well of the “Gold mix” was added to detection plate containing 50 μL/well of supernatant and incubated at 25° C. for 5 minutes. 5 μL/well stabilizer was added to the detection plate and incubated at 25° C. for 30 minutes. The absorbance at 635 nm was measured on a Spark 10M instrument (TECAN). The percent (%) inhibition at each concentration of a compound was calculated relative to the OD value in the Max and Min control wells contained within each assay plate. The Max control wells contained cells and substrate as 0% inhibition, and the Min control wells only contained cells as 100% inhibition. The concentrations and percent inhibition values for a test compound are plotted and the concentration of a the compound required to achieve 50% inhibition (IC50) was determined with a four-parameter logistic dose response equation.

Bounds are passed on as bounds.

`CN(c1nc(Cl)nn2c([C@@H]3O[C@H](COP(=O)(O)CP(=O)(O)O)[C@@H](O)[C@H]3O)cnc12)C1CCc2ccccc21` (stereo partly drawn) [Compound 29, (((((2R,3S,4R,1S)-5-(2-chloro-4-(((R)-2,3-dihydro-1H-inden-1-yl)(methyl)amino)imidazo[2,1-f][1,2,4]triazin-7-yl)-3,4-dihydroxytetrahydrofuran-2-yl)methoxy)(hydroxy)phosphoryl)methyl)phosphonic Acid]: the IC50 in assay [1] was under 10 nM; in assay [2], under 1 nM.
For `CN(c1nc(Cl)nn2c([C@@H]3O[C@H](COP(=O)(O)CP(=O)(O)O)[C@@H](O)[C@H]3O)cnc12)[C@H]1CCc2ccccc21` [Compound 30, (((((2R,3S,4R,1S)-5-(2-chloro-4-(((S)-2,3-dihydro-1H-inden-1-yl)(methyl)amino)imidazo[2,1-f][1,2,4]triazin-7-yl)-3,4-dihydroxytetrahydrofuran-2-yl)methoxy)(hydroxy)phosphoryl)methyl)phosphonic Acid] the same measures were under 10 nM and under 1 nM.
For `C[C@H](Nc1nc(Cl)nn2c([C@@H]3O[C@H](COP(=O)(O)CP(=O)(O)O)[C@@H](O)[C@H]3O)cnc12)c1ccccc1F` [Compound 32, (((((2R,3S,4R,1S)-5-(2-chloro-4-(((S)-1-(2-fluorophenyl)ethyl)amino)imidazo[2,1-f][1,2,4]triazin-7-yl)-3,4-dihydroxytetrahydrofuran-2-yl)methoxy)(hydroxy)phosphoryl)-methyl)phosphonic Acid] the same measures were under 10 nM and under 1 nM.
For `C[C@H](Nc1nc(Cl)nn2c([C@@H]3O[C@H](COP(=O)(O)CP(=O)(O)O)[C@@H](O)[C@H]3O)cnc12)c1cncc(F)c1` [Compound 33, (((((2R,3S,4R,5S)-5-(2-chloro-4-(((S)-1-(5-fluoropyridin-3-yl)ethyl)amino)imidazo[2,1-f][1,2,4]triazin-7-yl)-3,4-dihydroxytetrahydrofuran-2-yl)methoxyxhydroxy)phosphoryl)methyl)phosphonic acid] the same measures were under 10 nM and 1 to 9.9 nM.
On to `C[C@@H](Nc1nc(Cl)nn2c([C@@H]3O[C@H](COP(=O)(O)CP(=O)(O)O)[C@@H](O)[C@H]3O)cnc12)c1ccccc1` [Compound 34, [({[(2R,3S,4R,5S)-5-(2-chloro-4-{[(1R)-1-phenylethyl]amino}imidazo[2,1-f][1,2,4]triazin-7-yl)-3,4-dihydroxyoxolan-2-yl]methoxy}(hydroxy)phosphoryl)methyl]phosphonic Acid], for which the IC50 was under 10 nM in assay [1] and 1 to 9.9 nM in assay [2].
For `C[C@H](Nc1nc(Cl)nn2c([C@@H]3O[C@H](COP(=O)(O)CP(=O)(O)O)[C@@H](O)[C@H]3O)cnc12)c1ccccc1` [Compound 35, (((((2R,3S,4R,1S)-5-(2-chloro-4-(((S)-1-phenylethyl)amino)imidazo[2,1-f][1,2,4]triazin-7-yl)-3,4-dihydroxytetrahydrofuran-2-yl)methoxy)(hydroxy)phosphoryl)methyl)phosphonic Acid] the same measures were under 10 nM and under 1 nM.
For `C[C@H](Nc1nc(Cl)nn2c([C@@H]3O[C@H](COP(=O)(O)CP(=O)(O)O)[C@@H](O)[C@H]3O)cnc12)c1cccc(F)c1` [Compound 36, (((((2R,3S,4R,5S)-5-(2-chloro-4-(((S)-1-(3-fluorophenyl)ethyl)amino)imidazo[2,1-f][1,2,4]triazin-7-yl)-3,4-dihydroxytetrahydrofuran-2-yl)methoxy)(hydroxy)phosphoryl)methyl) phosphonic acid] the same measures were under 10 nM and under 1 nM.
For `C[C@H](Nc1nc(Cl)nn2c([C@@H]3O[C@H](COP(=O)(O)CP(=O)(O)O)[C@@H](O)[C@H]3O)cnc12)c1ccc(F)cc1` [Compound 37, (((((2R,3S,4R,1S)-5-(2-chloro-4-(((S)-1-(4-fluorophenyl)ethyl)amino)imidazo[2,1-f][1,2,4]triazin-7-yl)-3,4-dihydroxytetrahydrofuran-2-yl)methoxy)(hydroxy)phosphoryl)methyl)phosphonic Acid] the same measures were under 10 nM and under 1 nM.
Take `CC(C)[C@@H]1CCCN1c1nc(Cl)nn2c([C@@H]3O[C@H](COP(=O)(O)CP(=O)(O)O)[C@@H](O)[C@H]3O)cnc12` [Compound 39, (((((2R,3S,4R,1S)-5-(2-chloro-4-((S)-2-isopropylpyrrolidin-1-yl)imidazo[2,1-f][1,2,4]triazin-7-yl)-3,4-dihydroxytetrahydrofuran-2-yl)methoxy)(hydroxy)phosphoryl)methyl)phosphonic acid]: the figures for the IC50 in assay [1] and in assay [2] were under 10 nM and under 1 nM, respectively.
For `O=P(O)(O)CP(=O)(O)OC[C@H]1O[C@@H](c2cnc3c(N4CCCC45CCCC5)nc(Cl)nn23)[C@H](O)[C@@H]1O` [Compound 40, (((((2R,3S,4R,1S)-5-(2-chloro-4-(1-azaspiro[4.4]nonan-1-yl)imidazo[2,1-f][1,2,4]triazin-7-yl)-3,4-dihydroxytetrahydrofuran-2-yl)methoxy)(hydroxy)phosphoryl)methyl)phosphonic Acid] the same measures were under 10 nM and 1 to 9.9 nM.
For `O=P(O)(O)CP(=O)(O)OC[C@H]1O[C@@H](c2cnc3c(N4CCCC45CCC5)nc(Cl)nn23)[C@H](O)[C@@H]1O` [Compound 41, [({[(2R,3S,4R,5S)-5-(4-{5-azaspiro[3.4]octan-5-yl}-2-chloroimidazo[2,1-f][1,2,4]triazin-7-yl)-3,4-dihydroxyoxolan-2-yl]methoxy}(hydroxy)phosphoryl)methyl]phosphonic Acid] the same measures were under 10 nM and under 1 nM.
For `O=P(O)(O)CP(=O)(O)OC[C@H]1O[C@@H](c2cnc3c(N4CCOCC4)nc(Cl)nn23)[C@H](O)[C@@H]1O` [Compound 42, (((((2R,3S,4R,5S)-5-(2-chloro-4-morpholinoimidazo[2,1-f][1,2,4]triazin-7-yl)-3,4-dihydroxytetrahydrofuran-2-yl)methoxyxhydroxy)phosphoryl)methyl)phosphonic acid] the same measures were under 10 nM and under 1 nM.
